pEC50: −log10 of the molar value. Where a name gives a salt, the structure may show the parent alone. Read-outs that look alike come from different tables or passages of the source.
Legend:
aromatase = target: T1, aromatase (Rattus norvegicus, UniProt P22443); test: Aromatase inhibition in the rat ovarian microsome assay; type: biochemical
T1 construct: ovarian microsomes are obtained from rats treated with pregnant mares serum gonadotropin; from tissue; host or cells: ovarian microsomes from rats treated with pregnant mares serum gonadotropin
T1 sequence (P22443 1-508): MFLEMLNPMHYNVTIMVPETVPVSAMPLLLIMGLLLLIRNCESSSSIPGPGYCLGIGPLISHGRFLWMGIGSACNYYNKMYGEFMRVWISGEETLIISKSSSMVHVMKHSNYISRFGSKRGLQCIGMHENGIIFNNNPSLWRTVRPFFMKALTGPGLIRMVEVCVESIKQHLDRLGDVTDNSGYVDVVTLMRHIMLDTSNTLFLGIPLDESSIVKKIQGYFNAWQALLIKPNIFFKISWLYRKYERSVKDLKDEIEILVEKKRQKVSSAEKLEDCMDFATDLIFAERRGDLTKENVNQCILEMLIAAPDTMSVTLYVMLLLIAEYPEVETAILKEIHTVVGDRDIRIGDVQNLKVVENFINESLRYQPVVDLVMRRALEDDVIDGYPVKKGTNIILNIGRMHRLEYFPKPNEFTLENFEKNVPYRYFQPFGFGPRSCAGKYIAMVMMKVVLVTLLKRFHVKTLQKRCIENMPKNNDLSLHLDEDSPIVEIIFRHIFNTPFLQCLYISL
Procedure: In this test system, ovarian microsomes are obtained from rats treated with pregnant mares serum gonadotropin. Test compounds are added to reaction vials containing 0.1 μM 4-androstene-3,17-dione, 100,000 dpm 1,2[^3 H]-androstenedione, the microsomes and a NADPH generating system. The concentrations of the inhibitors tested ranged between 0.005 and 10 μM.

breast cancer = conditions: Cancer Research, Vol. 42, Suppl. 8:3261s (1982); cited from earlier work
aromatization [1] = test: Estrogen synthesis inhibition in rats: uterine weight; type: in vivo, rat (immature female Wistar); conditions: 7 days, testosterone propionate treated
Procedure: (§1) Immature female Wistar rats (45-55 grams) were divided into control and test groups of 4-8 animals each. Test compounds were administered for seven days as a component of the diet. Control animals received diet without the test compound. Beginning on the fourth day of the test, all animals treated with the test compound and one half of the control animals were given a subcutaneous injection of 1.0 mg of testosterone propionate in corn oil. The remaining control animals received only an equivalent volume of corn oil. On the seventh day of the test, rats treated with testosterone propionate were injected subcutaneously with 100 μCi of [^3 H]-testosterone in 50 μl of 3:1 (v/v) saline-ethanol.
After two hours, the animals were killed by decapitation. Uteri were isolated, trimmed of extraneous connective tissue, and weighed. […] In the control animals treated with testosterone propionate, estrogens produced by aromatization stimulated the uterus resulting in an increase in weight.

aromatization [2] = test: Estrogen synthesis inhibition in rats: ovarian steroid concentrations; type: in vivo, rat (immature female Wistar); conditions: ovary, 7 days
Procedure: as §1
Ovaries from rats treated with [^3 H]-testosterone were excised, cleaned of extraneous tissue, and homogenized in 2.5 ml of a 1.0 mM potassium phosphate buffer containing 3.0 mM MgCl2.6H2 O, 320 mM sucrose, and 0.25% Triton X-100 (polyethylene glycol p-isooctyl phenyl ether, Rohm and Hass) at pH 6.5. The ovarian steroids were extracted with 1.5 ml of 9:1 (v/v) toluene/ethanol to which had been added 25 to 100 mcg each of unlabelled estradiol, estriol, and estrone, and approximately 1000 dpm of [^14 C]-estradiol. The samples were vortexed, centrifuged at 500×g for 10 minutes, and the organic phase was transferred to a conical vial. Two additional extractions were performed on the residue in the same way. The pooled organic extracts were evaporated for subsequent thin-layer chromatography.
Ovarian proteins were precipitated by the addition of 5.0 ml of ethanol to the remaining aqueous phase. After an overnight incubation at 4° C., the samples were centrifuged at 1500×g for 10 minutes. The supernatant was discarded and the pellet was dissolved in 0.3N potassium hydroxide. Protein was determined according to the method of Bradford, Analytical Biochemistry, 72, 248 (1976).
The organic residue from each above extraction was redissolved in 9:1 (v/v) dichloromethane/methanol. The solution of each sample was applied to separate silica gel thin layer chromatography plates which contained a fluorescent indicator. The plates were developed in the first dimension with 160:38:1.5:0.5 (v/v/v/v) dichloromethane/ethyl acetate/methanol/acetic acid to within 3 cm of the top of the plate. After air-drying, the plate was developed in the second dimension with 180:19:1 (v/v/v) dichloromethane/methanol/ammonium hydroxide. The plate was air-dried and viewed under 254 nm UV light.
The visible spots were marked and the plates were sprayed with primulin (0.001% in 4:1 v/v acetone/water) according to the method of Wright, J. Chromatography, 59, 220 (1971) which allowed for the identification of additional steroids under 365 nm UV light. The spots were scraped from the plate using a glass wool plugged Pasteur pipet attached to a vacuum line. The steroids were eluted directly into scintillation vials by the addition of 0.2 ml of dichloromethane followed by two washes each of 2.0 ml of methanol. The organic solvent was evaporated and 10.0 ml of scintillation fluid (Beckman Ready Solv-NA) was added to the vials. Samples were analyzed by liquid scintillation spectrometry. Corrections were made based on the recoveries of the [^14 C]-steroid. Steroid concentrations are expressed as femtomoles per milligram protein.

[3] = system: DMBA-induced mammary tumors; test: DMBA-induced mammary tumor inhibition; type: in vivo, rat (female Sprague-Dawley); conditions: Test I, 20 mg/kg, once daily by gavage in corn oil
Procedure: Mammary tumors were produced in female Sprague-Dawley rats which were 50-60 days old by the gavage administration of 20 mg of 7,12-dimethylbenz[α]anthracene (DMBA). About six weeks after DMBA administration, the mammary glands were palpated at weekly intervals for the appearance of tumors. Whenever one or more tumors appeared and were measurable in an animal, that animal was selected for experimentation. […] Each control and test group contained 8 animals. The test compound was administered in corn oil and administered once daily by gavage.
Every experiment included a group of control rats having tumors that were given corn oil vehicle by gavage. […] The area of each tumor was calculated by multiplying the shortest and longest diameters of the tumor. The treatment and measurement of animals continued for five weeks at which time the final areas of the tumors were determined. The change in the mean tumor area was determined, and the means change was analyzed for its significance using Dunnett's t-test.

[4] = rat ovarian microsomes, substrate (androstenedione) 0.1 μM, read-out: EC50 (concentration required to achieve 50% inhibition of aromatase activity)
[5] = Test I, 30 ppm in feed (approx. 3 mg/kg/day)
[6] = Test I, 300 ppm in feed (approx. 30 mg/kg/day)
[7] = Test II, 200 ppm in feed (approx. 20 mg/kg/day)

## c1ccc(C(Cc2c[nH]cn2)c2ccccc2)cc1 [4(5)-(2,2-diphenylethyl)imidazole, 4(5)-(2,2-Diphenylethyl)imidazole]
aromatase
  pEC50: 7.03

## CCC1(c2ccc(N)cc2)CCC(=O)NC1=O (centres unmarked) [aminoglutethimide]
Breast cancer
  effect in treatment of breast cancer: beneficial effect

## C[C@]12C=CC(=O)C=C1CC[C@@H]1[C@@H]2CC[C@]2(C)OC(=O)CC[C@@H]12 [testolactone]
Breast cancer
  effect in treatment of breast cancer: beneficial effect

## NC(=O)C(Cc1c[nH]cn1)(c1ccc(Cl)cc1)c1ccc(Cl)cc1 [α,α-Bis(4-chlorophenyl)-1H-imidazole-4(5)-propionamide hydrochloride]
aromatase; [4]
  pEC50: > 7.30

## NC(=O)C(Cc1c[nH]cn1)(c1ccccc1)c1ccccc1 [α,α-Diphenylimidazole-4-propionamide hydrochloride]
aromatase; [4]
  pEC50: 6.93

## N#CC(Cc1c[nH]cn1)(c1ccc(Cl)cc1)c1ccc(Cl)cc1 [α,α-bis(4-chlorophenyl)-imidazole-4(5)-propionitrile, maleic acid salt]
aromatase; [4]
  pEC50: 7.21
Aromatization [1]; Test I, 30 ppm in feed (approx. 3 mg/kg/day), 4 animals
  Mean Uterine Weight: 166.0 mg
Aromatization [1]; Test I, 300 ppm in feed (approx. 30 mg/kg/day), 5 animals, + p < 0.05 vs testosterone-treated control
  Mean Uterine Weight: 141.6 mg
Aromatization [2]; [5]
  Mean Steroid Concentration, estradiol: 1.36 femtomoles per milligram of protein
  Mean Steroid Concentration, estriol: 0.72 femtomoles per milligram of protein
  Mean Steroid Concentration, estrone: 0.11 femtomoles per milligram of protein
Aromatization [2]; [6]
  Mean Steroid Concentration, estradiol: 1.06 femtomoles per milligram of protein
  Mean Steroid Concentration, estriol: 0.23 femtomoles per milligram of protein
Aromatization [2]; Test I, 300 ppm in feed (approx. 30 mg/kg/day), + p < 0.05 vs testosterone-treated control
  Mean Steroid Concentration, estrone: 0.00 femtomoles per milligram of protein
[3]; 5 weeks, control 78.3 to 980.8, + p < 0.05 vs control
  Mean Tumor Area, Finish: 389.7 mm^2
[3]; start of test (baseline)
  Mean Tumor Area, Start: 67.0 mm^2

## N#CC(Cc1c[nH]cn1)(c1ccccc1)c1ccccc1 [α,α-diphenylimidazole-4(5)-propionitrile, maleic acid salt]
aromatase; [4]
  pEC50: 6.78

## N#CC(Cc1c[nH]cn1)(c1ccccc1)c1cccc(Cl)c1 (stereo not drawn) [α-(3-chlorophenyl)-α-phenyl-imidazole-4(5)-propionitrile hydrochloride]
aromatase; [4]
  pEC50: 7.11

## N#CC(Cc1c[nH]cn1)(c1ccccc1)c1ccc(Cl)cc1 (stereo not drawn) [α-(4-chlorophenyl)-α-phenyl-imidazole-4(5)-propionitrile, maleic acid salt]
aromatase
  pEC50: 7.14

## COc1ccc(C(C#N)(Cc2c[nH]cn2)c2ccccc2)cc1 (stereo not drawn) [α-(4-methoxyphenyl)-α-phenyl-imidazole-4(5)-propionitrile, maleic acid salt]
aromatase; [4]
  pEC50: 6.74

## N#CC(Cc1c[nH]cn1)(c1ccccc1)c1cccnc1 (stereo not drawn) [α-[1-imidazol-4(5)-ylmethyl]-α-phenyl-3-pyridineacetonitrile dihydrochloride]
aromatase; [4]
  pEC50: 6.25

## N#CC(Cc1c[nH]cn1)(c1ccccc1)c1ccc(C(F)(F)F)cc1 (stereo not drawn) [α-phenyl-α-(4-trifluoromethylphenyl)-1H--imidazole-4(5)-propionitrile]
aromatase; [4]
  pEC50: 7.14
Aromatization [1]; Test II, 200 ppm in feed (approx. 20 mg/kg/day), 5 animals, + p < 0.05 vs testosterone-treated control
  Mean Uterine Weight: 142.2 mg
Aromatization [2]; [7]
  Mean Steroid Concentration, estradiol: 1.01 femtomoles per milligram of protein
  Mean Steroid Concentration, estriol: 0.31 femtomoles per milligram of protein
  Mean Steroid Concentration, estrone: 0.00 femtomoles per milligram of protein

Source: patent US4605661A, “Aromastase inhibiting α,α-diarylimidazole-4(5)-propionitriles, α,α-diarylimidazole-4(5)-propionamides, and 4(5)-(2,2-diarylethyl)imidazoles” (Eli Lilly and Company, priority 1984, dated 1986)
